Each block holds one molecule with its values, some of them ahead of it.
Assays:
[1] = Adsorption of compounds to aluminum hydroxide in histidine buffer (pH 6.8); assay type: physicochemical; conditions: histidine buffer pH 6.8, 0.1 mg/mL compound, 37° C. 5 hours
[2] = Pharmacokinetics and mass balance of aluminum and Compound 15 in male Wistar rats (Example 12); assay type: in vivo, rat; conditions: single i.v. dose equivalent to 0.2 mg of aluminum per animal
Protocol: The pharmacokinetics and mass balance of aluminum and Compound 15 were investigated following a single subcutaneous (s.c.) dose (1 mL) of Suspension H (Compound 15/Alhydrogel® at a 2:1 ratio of aluminum to Compound 15) in male Wistar rats. In addition, the pharmacokinetics of aluminum were investigated following a single intravenous (i.v.) dose (0.5 mL) of 0.4 mg/mL AlCl3.6H2O (equivalent to 0.2 mg of aluminum) in male Wistar rat. Additionally, a control group dosed subcutaneously with saline were evaluated for environmental background aluminum levels.
Metal free/trace metal grade containers/tubes/tips (<1 ng/g Al) were used for sample handling. Aluminum content was analyzed in serum and urine (Frontage Laboratories).
Approximately 0.3 to 0.5 mL of blood samples were collected from carotid artery cannulation at 0 (pre dose), 0.083 (IV only), 0.25 (IV only), 0.5, 3, 6, 24, 72, 168, 336, 504, 672 hours post dose.
Urine was collected from each animal for the following periods: 0 (24 h before dose), 0-24, 24-48, 48-72, 72-96, 96-168 hours post dose, then weekly up to 672 h. The urine samples were stored at −20° C. until analyzed. Feces were collected from each animal and samples were pooled per subject at the end of study at 672 h.
Compound 15 and aluminum levels were analyzed in the serum and urine samples obtained from the s.c. group whereas only aluminum levels were analyzed in the i.v. group.

MC38 tumors = experiment: Contralateral MC38 colon cancer model, alone or with checkpoint inhibitors; assay type: in vivo, mouse; conditions: single agents; Compound 15 50 μg i.t. weekly x2, antibodies 10 mg/kg i.p. twice weekly
Protocol: MC38 cells were grown in sterile conditions in a 37° C. incubator with 5% CO2 for two weeks. The cells were cultured in Dulbecco's Modified Eagle's medium (DMEM) media supplemented with 10% FBS, cells were passed every 2-3 days. On the day of injection, cells were harvested (Passage 12) and re-suspended in Hanks' Balanced Salt Solution (HBSS) at a concentration of 2.5×10^6/ml. Cells were Radil tested for mycoplasma and murine viruses.
For each mouse, 0.25×10^6 cells were implanted with subcutaneously injection into right flank using a 28½ g needle ([…]). After the first implantation on day 3 (0.25×10^6) cells are implanted with a subcutaneous injection into left flank using a 28½ g needle (100 μL injection volume). Tumor sizes were assessed three times a week once tumors were palpable. Tumor sizes were determined by using caliper measurements, with tumor volumes calculated using the formula: (Length×Width×Width)/2.
Female C57BL/6 mice bearing the MC38 tumors were randomized into 7 groups (n=9 mice per group) 9 days post tumor cell implantation with an average tumor volume range of 69.09-142.25 mm^3, and the separate groups of tumor bearing mice received treatment as shown in Table 17.
The anti-tumor efficacy of Compound 15 adsorbed to aluminum hydroxide (Alhydrogel®) alone or in combination with checkpoint inhibitors, was determined using a contralateral MC38 colon cancer model. The tumor volume was obtained after two weekly intratumoral injections of Compound 15 adsorbed to aluminum hydroxide (50 μg each) either alone (Group 2), in a double combination with intraperitoneal injection (twice weekly) of an anti-PD-L1 antibody (10 mg/kg) (Group 5), in a double combination with intraperitoneal injection (twice weekly) of an anti-CTLA4 antibody (10 mg/kg) (Group 6), or in a triple combination with intraperitoneal injection (twice weekly) of an anti-PD-L1 antibody (10 mg/kg) and with intraperitoneal injection of an anti-CTLA4 antibody (10 mg/kg) (group 7). For comparison, data was obtained after an intraperitoneal injection (twice weekly) of the anti-PD-L1 antibody (10 mg/kg) alone (Group 3) and after an intraperitoneal injection (twice weekly) of the anti-CTLA4 antibody (10 mg/kg) alone (Group 4). The untreated control data was also obtained (Group 1).
The anti-tumor efficacy of Compound 15 alone (without aluminum hydroxide (Alhydrogel®)) or in combination with checkpoint inhibitors was determined using a contralateral MC38 colon cancer model. […] In addition, the anti-tumor efficacy of Compound 15 adsorbed to aluminum hydroxide (Alhydrogel®) alone or in a triple combination with checkpoint inhibitors was determined using a contralateral MC38 colon cancer model. […]

[3] = system: MC38 syngeneic colon cancer tumor model; experiment: MC38 syngeneic colon cancer tumor model, tumor volume at injection site and distant site; assay type: in vivo, mice; conditions: One-Way ANOVA post hoc Tukey, difference from no treatment
From the text: FIG. 10: A) Efficacy at the intratumor injection site following administration of Compound 15/aluminum hydroxide, an anti-PDL1 antibody or an anti-CTLA4 antibody as single agents or after the administration of combinations of Compound 15/aluminum hydroxide and an anti-PDL1 antibody and/or an anti-CTLA4 antibody.
The effect on tumor volume by administration of a compound of Formula (A), in the presence of aluminum-containing particles, with and without the administration of one or more checkpoint inhibitors is shown in Example 14.
Percent treatment/control (T/C) values for tumor were calculated using the following formula: % T/C=100×ΔT/ΔC if ΔT>0% % Regression=100×ΔT/Tinitial if ΔT<0 where: • T=mean tumor volume of the drug-treated group on the final day of the study; • ΔT=mean tumor volume of the drug-treated group on the final day of the study minus mean tumor volume of the drug-treated group on initial day of dosing; • Tinitial=mean tumor volume of the drug-treated group on initial day of dosing; • C=mean tumor volume of the control group on the final day of the study; • ΔC=mean tumor volume of the control group on the final day of the study minus mean tumor volume of the control group on initial day of dosing. All data were expressed as mean±standard error of the mean (SEM). Delta tumor volume

Molecule: Cc1cc(OCCOCCOCCC(F)(F)P(=O)(O)O)ccc1CCc1cnc2c(N)nc3cc(CCC(=O)O)ccc3c2c1 [Compound 18, 3-(5-amino-2-(4-(2-(2-(3,3-difluoro-3-phosphonopropoxy)ethoxy)ethoxy)-2-methylphenethyl)benzo[f][1,7]naphthyridin-8-yl)propanoic acid]
% Bound [1]: 96.2%

Molecule: Cc1cc(OCCCC(F)(F)P(=O)(O)O)ccc1CCc1cnc2c(N)nc3cc(CCC(=O)O)ccc3c2c1 [Compound 17, 3-(5-amino-2-(4-(4,4-difluoro-4-phosphonobutoxy)-2-methylphenethyl)benzo[f][1,7]naphthyridin-8-yl)propanoic acid]
% Bound [1]: 94.5%

B1: anti-PD-L1: Anti-PD-L1 antibody BAP058-hum13 with heavy chain variable domain of SEQ ID NO:7 and light chain variable domain of SEQ ID NO:17 (antibody, V domains shown)
VH: EVQLVQSGAEVKKPGATVKISCKVSGYTFTSYWMYWVRQARGQRLEWIGRIDPNSGSTKYNEKFKNRFTISRDNSKNTLYLQMNSLRAEDTAVYYCARDYRKGLYAMDYWGQGTTVTVSS
VL: AIQLTQSPSSLSASVGDRVTITCKASQDVGTAVAWYLQKPGQSPQLLIYWASTRHTGVPSRFSGSGSGTDFTFTISSLEAEDAATYYCQQYNSYPLTFGQGTKVEIK
% T/C at the contralateral tumor site (MC38 tumors): 27.02% | % T/C at the primary injection site (MC38 tumors): 56.22%

B2: Anti PD-L1: anti-PDL1 antibody, inhibitor of the PD-L1 ligand, used as single agent or combination partner (antibody, V domains shown)
VH: B1 VH
VL: B1 VL
Efficacy at a site distant from the injection site (distant site tumor) ([3]; post implant day 19, N=9 per group): significantly different | Efficacy at the intratumor injection site (treated site tumor) ([3]; post implant day 22, N=9 per group): significantly different

Next, values leading:

% Bound [1]: 98.2%
Molecule: Cc1ccc2c(c1)nc(N)c1ncc(CCc3ccc(OCCOCCOCCC(F)(F)P(=O)(O)O)cc3C)cc12 [Compound 1, (3-(2-(2-(4-(2-(5-amino-8-methylbenzo[f][1,7]naphthyridin-2-yl)ethyl)-3-methylphenoxy)ethoxy)ethoxy)-1,1-difluoropropyl)phosphonic acid]

AUClast of aluminum [2]: 67400 ng·h/mL | mean Cmax of aluminum in serum [2]: 26000 ng/mL | mean Tmax of aluminum [2]: 13.2 min | mean recovery of aluminum in urine [2]: ~0.2 mg
Molecule: O.O.O.O.O.O.[Al+3].[Cl-].[Cl-].[Cl-] [AlCl3.6H2O]

% Bound [1]: 97.0%
Molecule: Cc1cc(OCCOCCOCCP(=O)(O)O)ccc1CCc1cnc2c(N)nc3cc(CCC(=O)O)ccc3c2c1 [Compound 20, 3-(5-amino-2-(2-methyl-4-(2-(2-(2-phosphonoethoxy)ethoxy)ethoxy)phenethyl)benzo[f][1,7]naphthyridin-8-yl)propanoic acid]

Source: US11752162B2, “Compounds and compositions for treating solid tumors by intratumoral administration” (Novartis AG, priority 2017, dated 2023)
